Data reported in BindingDB's records for doi:10.7270/Q2251GJ9 (The Scripps Research Institute Molecular Screening Center, 2007).
Where a name gives a salt, the structure may show the parent alone.

Biological target: Sphingosine 1-phosphate receptor 1 (Homo sapiens, UniProt P21453)
Assay: direct activation of human S1P1 – cell-based, agonist mode, 60K MLSMR set, dose response (AID 468)
[1] = inactive by the depositor's call

Sequence of Sphingosine 1-phosphate receptor 1 (P21453 whole entry): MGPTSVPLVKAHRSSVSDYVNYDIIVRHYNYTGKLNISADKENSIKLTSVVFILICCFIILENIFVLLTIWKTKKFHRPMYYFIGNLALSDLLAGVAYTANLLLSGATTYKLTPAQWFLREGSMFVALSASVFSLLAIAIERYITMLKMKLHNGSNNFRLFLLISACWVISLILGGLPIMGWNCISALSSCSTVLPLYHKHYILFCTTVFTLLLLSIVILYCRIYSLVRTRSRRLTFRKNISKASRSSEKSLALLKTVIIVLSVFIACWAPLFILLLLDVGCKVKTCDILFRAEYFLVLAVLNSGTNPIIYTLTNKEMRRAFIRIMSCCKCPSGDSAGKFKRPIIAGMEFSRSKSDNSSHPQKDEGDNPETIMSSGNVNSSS

Row | EC50 | EC50 [1] | SMILES
1 | 6.14 µM |  | c1ccc2c(c1)oc1c(N3CCN(Cc4ccc5c(c4)OCO5)CC3)ncnc12
2 | > 95 µM |  | COC(=O)C1=CN(CCCN2CCCC2=O)C=C(C(=O)OC)C1c1ccccc1C(F)(F)F
3 |  | 13.3 µM | CC1=CC(C)(C)Nc2ccc(OC(=O)c3ccco3)cc21
4 | > 95 µM |  | CCC(NC(=O)Nc1nnc(C(F)(F)F)s1)(C(F)(F)F)C(F)(F)F
5 |  | 20.6 µM | O=S1(=O)C=C(Sc2nnc(-c3ccccc3)o2)c2ccccc21
6 | 12 µM |  | Oc1ccc(-c2nc(-c3ccc(O)c(O)c3)cs2)cc1
7 | 5.9 µM |  | CCC1CCCCN1C(=O)CSc1nnc(-c2c[nH]c3ccccc23)o1 (centres undefined)
8 | 7.07 µM |  | O=C(CSc1nnc(-c2c[nH]c3ccccc23)o1)N1c2ccccc2CCc2ccccc21
9 | 0.857 µM |  | O=C(Nc1ccc(N2CCCCC2)c(Cl)c1)c1nnc[nH]1
10 | 4.51 µM |  | COc1ccc2[nH]c(=O)c3c(c2c1)OC(C)(C)C=C3
11 | 1.02 µM |  | O=C(CSc1nnc(-c2c[nH]c3ccccc23)o1)N(Cc1ccccc1)c1ccc(F)cc1
12 | 1.02 µM |  | Oc1c(Cl)cc(Cl)cc1Sc1cc(Cl)cc(Cl)c1O
13 | > 30 µM |  | Cc1ccc2[nH]c3c(N4CCN(Cc5ccc6c(c5)OCO6)CC4)ncnc3c2c1
14 | > 3 µM |  | Fc1ccc2[nH]c3c(N4CCN(c5ccccc5)CC4)ncnc3c2c1
15 | 4.41 µM |  | CC(C)OCCCNc1ncnc2c1[nH]c1ccc(F)cc12
16 | 1.95 µM |  | c1ccc(CSc2nnc(-c3c[nH]c4ccccc34)o2)cc1
17 | 9.43 µM |  | O=C(Cc1c[nH]c2ccccc12)N1CCc2ccccc21
18 | 5.27 µM |  | Cc1cc(C(=O)CSc2nnc(-c3ccccc3)n2-c2ccccc2)c(C)n1-c1nnc[nH]1
19 | 8.79 µM |  | CN1/C(=C/C(=O)c2nc(S(C)(=O)=O)ncc2Cl)C(C)(C)c2ccccc21
20 | 4.19 µM |  | CCCCOC(=O)c1[nH]c2c(c1C)C(=O)CC(c1cc(OC)c(OC)c(OC)c1)C2 (centres undefined)
21 | 6.03 µM |  | CCc1ccc(N(CC)c2ncnc3nc[nH]c23)cc1

Row | EC50 | EC50 [1] | SMILES
22 |  | 13.8 µM | Cc1n[nH]c(C)c1N1C(=O)c2cccc3c(N4CCCCCC4)ccc(c23)C1=O
23 | > 3 µM |  | CCOC(=O)/C=C/S(=O)(=O)c1ccc(NC(C)=O)cc1
24 | > 95 µM |  | Cc1ccc(-c2n[nH]c(=S)n2C)cc1
25 | > 95 µM |  | Clc1ccc(NCn2cncn2)nc1
26 | 5.94 µM |  | CCc1oc2ccccc2c1C(=O)c1cc(Br)c(O)c(Br)c1
27 |  | 13.1 µM | CN1c2ccccc2C(C)(C)C12C=Cc1cc(O)ccc1O2 (centres undefined) [1',3',3'-trimethyl-6-spiro[1-benzopyran-2,2'-indole]ol]
28 | > 0.03 µM |  | CC1=NC(=O)NC(c2ccc(Cl)cc2)C1C(=O)OCc1ccc2c(c1)OCO2 (centres undefined) [1,3-benzodioxol-5-ylmethyl 4-(4-chlorophenyl)-6-methyl-2-oxidanylidene-3,4-dihydro-1H-pyrimidine-5-carboxylate]
29 | 0.437 µM |  | CC1=NC(=O)NC(c2ccc(F)cc2)C1C(=O)OCc1ccc2c(c1)OCO2 (centres undefined) [1,3-benzodioxol-5-ylmethyl 4-(4-fluorophenyl)-6-methyl-2-oxidanylidene-3,4-dihydro-1H-pyrimidine-5-carboxylate]
30 | 1.84 µM |  | CC1=NC(=O)NC(c2ccccc2)C1C(=O)OCc1ccc2c(c1)OCO2 (centres undefined) [1,3-benzodioxol-5-ylmethyl 6-methyl-2-oxidanylidene-4-phenyl-3,4-dihydro-1H-pyrimidine-5-carboxylate]
31 | 7.77 µM |  | O=C(Nc1ccc(OC(F)F)c(Cl)c1)Nc1ccc2c(c1)OCO2 [1-(1,3-benzodioxol-5-yl)-3-[3-chloro-4-(difluoromethoxy)phenyl]urea]
32 | 5.16 µM |  | Cc1cccc(-c2nc(CSCC(=O)N3CCN(Cc4ccc5c(c4)OCO5)CC3)c(C)o2)c1 [1-(1,3-benzodioxol-5-ylmethyl)-4-[({[5-methyl-2-(3-methylphenyl)-1,3-oxazol-4-yl]methyl}thio)acetyl]piperazine]
33 | 0.415 µM |  | Cc1nn(-c2nc3ccccc3s2)c(N)c1-c1ccccc1 [1-(1,3-benzothiazol-2-yl)-3-methyl-4-phenyl-1H-pyrazol-5-amine]
34 | 9.52 µM |  | C=CCn1c(C)cc(C(=O)CSc2nc3ccccc3o2)c1C [1-(1-allyl-2,5-dimethyl-pyrrol-3-yl)-2-(1,3-benzoxazol-2-ylthio)ethanone]
35 |  | 51.2 µM | CC(C)C(c1nnnn1Cc1ccccc1)N(Cc1ccco1)Cc1cccs1 (centres undefined) [1-(1-benzyltetrazol-5-yl)-N-(furan-2-ylmethyl)-2-methyl-N-(thiophen-2-ylmethyl)propan-1-amine]
36 | 10.5 µM |  | O=C(CCN1CCc2ccccc2CC1)c1ccc2c(c1)OCCO2 [1-(2,3-dihydro-1,4-benzodioxin-6-yl)-3-(1,2,4,5-tetrahydro-3-benzazepin-3-yl)-1-propanone;hydrochloride]
37 | 16.7 µM |  | COc1ccc(-n2c(O)cc(Sc3nnc[nH]3)c2O)c(OC)c1 [1-(2,4-dimethoxyphenyl)-3-(1H-1,2,4-triazol-5-ylthio)pyrrolidine-2,5-dione]
38 |  | 11 µM | Cc1ccc(-n2ncc3c(N4CCCC(C)C4)ncnc32)c(C)c1 (centres undefined) [1-(2,4-dimethylphenyl)-4-(3-methylpiperidin-1-yl)-1H-pyrazolo[3,4-d]pyrimidine]
39 | > 10 µM |  | CCOc1ccc(S(=O)(=O)N2CCN(c3ccc(C)cc3C)CC2)cc1 [1-(2,4-dimethylphenyl)-4-(4-ethoxyphenyl)sulfonyl-piperazine]
40 | 4.2 µM |  | O=S(=O)(c1cccs1)N1CCN(CC(O)COc2cc(Cl)ccc2Cl)CC1 (centres undefined) [1-(2,5-dichlorophenoxy)-3-(4-thiophen-2-ylsulfonyl-1-piperazinyl)-2-propanol]
41 | 4.66 µM |  | Cc1cc(C(=O)CSc2nnc(-c3cccs3)o2)c(C)n1-c1ccccc1 [1-(2,5-dimethyl-1-phenyl-3-pyrrolyl)-2-[(5-thiophen-2-yl-1,3,4-oxadiazol-2-yl)thio]ethanone]
42 | 5.91 µM |  | Cc1cc(C(=O)CSc2nnnn2-c2ccc(O)cc2)c(C)n1Cc1ccc2c(c1)OCO2 [1-(2,5-dimethyl-1-piperonyl-pyrrol-3-yl)-2-[[1-(4-hydroxyphenyl)tetrazol-5-yl]thio]ethanone]

Row | EC50 | EC50 [1] | SMILES
43 |  | 12.8 µM | Cc1ccc(C)c(-n2nnnc2Sc2nnnn2-c2ccccc2)c1 [1-(2,5-dimethylphenyl)-5-(1-phenyltetrazol-5-yl)sulfanyltetrazole]
44 |  | 12.7 µM | CC1CCCC(C)N1C(=O)CN1CCN(c2nc(-c3ccc(F)cc3)cs2)CC1 (centres undefined) [1-(2,6-Dimethyl-piperidin-1-yl)-2-{4-[4-(4-fluoro-phenyl)-thiazol-2-yl]-piperazin-1-yl}-ethanone]
45 |  | 31.7 µM | CCN(CC)C(=O)C1CCN(S(=O)(=O)c2ccc3oc4ccccc4c3c2)CC1 [1-(2-dibenzofuranylsulfonyl)-N,N-diethyl-4-piperidinecarboxamide]
46 | 7.29 µM |  | COc1ccccc1N=C(N)Nc1nc(CSc2ccc(C)cc2)cc(=O)[nH]1 [1-(2-methoxyphenyl)-2-[6-[[(4-methylphenyl)thio]methyl]-4-oxo-1H-pyrimidin-2-yl]guanidine]
47 |  | 13.4 µM | CC(C)Cn1c(=O)c(C(=O)Nc2ccccc2S(N)(=O)=O)c(O)c2ccccc21 [1-(2-methylpropyl)-2-oxidanyl-4-oxidanylidene-N-(2-sulfamoylphenyl)quinoline-3-carboxamide]
48 |  | 20 µM | O=C1CC(N2CCN(C/C=C/c3ccccc3)CC2)C(=O)N1CCc1ccccc1 (centres undefined) [1-(2-phenylethyl)-3-[4-[(E)-3-phenylprop-2-enyl]-1-piperazinyl]pyrrolidine-2,5-dione]
49 | 4.47 µM |  | Cc1occc1C(=O)N1CCN(c2ccc(Cl)c(Cl)c2)CC1 [1-(3,4-dichlorophenyl)-4-(2-methyl-3-furoyl)piperazine]
50 | 6.58 µM |  | COc1ccc(S(=O)(=O)N2CCN(c3ccc(C)cc3C)CC2)cc1OC [1-(3,4-dimethoxyphenyl)sulfonyl-4-(2,4-dimethylphenyl)piperazine]
51 | 3.83 µM |  | COc1cc(-c2noc(C3CCCN(S(=O)(=O)c4cccc(Cl)c4)C3)n2)cc(OC)c1OC (centres undefined) [1-(3-Chloro-benzenesulfonyl)-3-[3-(3,4,5-trimethoxy-phenyl)-[1,2,4]oxadiazol-5-yl]-piperidine]
52 | 22.5 µM |  | COc1ccc(C(=O)C(CN2CCOCC2)c2ccccc2)cc1F (centres undefined) [1-(3-Fluoro-4-methoxy-phenyl)-3-morpholin-4-yl-2-phenyl-propan-1-one]
53 | 8.72 µM |  | COc1cccc(NC(=O)Nc2nnc(N3CCCCC3C)s2)c1 (centres undefined) [1-(3-methoxyphenyl)-3-[5-(2-methyl-1-piperidinyl)-1,3,4-thiadiazol-2-yl]urea]
54 | 2.82 µM |  | CCCS(=O)(=O)c1nnnn1-c1cccc(OC)c1 [1-(3-methoxyphenyl)-5-(propylsulfonyl)-1H-tetrazole]
55 | 6.73 µM |  | CCOc1ccc(S(=O)(=O)n2cnc3cc(C)c(C)cc32)cc1 [1-(4-Ethoxy-benzenesulfonyl)-5,6-dimethyl-1H-benzoimidazole]
56 |  | 12 µM | CCOC(=O)C1CCN(c2ncnc3c2oc2ccccc23)CC1 [1-(4-benzofuro[3,2-d]pyrimidinyl)-4-piperidinecarboxylic acid ethyl ester]
57 | 9.38 µM |  | N#Cc1ccc(NC(=O)Nc2ccc(Cl)cc2)cc1 [1-(4-chlorophenyl)-3-(4-cyanophenyl)urea]
58 | > 30 µM |  | Cc1cccc(NC(=O)Nc2ccc(C#N)cc2)n1 [1-(4-cyanophenyl)-3-(6-methyl-2-pyridinyl)urea]
59 | 17.9 µM |  | O=C(c1ccc(F)cc1)C(CN1CCOCC1)c1ccccc1 (centres undefined) [1-(4-fluorophenyl)-3-(4-morpholinyl)-2-phenyl-1-propanone;hydrochloride]
60 | 2.26 µM |  | COc1cc(CSc2nnnn2-c2ccc(C)cc2)cc(OC)c1OC [1-(4-methylphenyl)-5-[(3,4,5-trimethoxybenzyl)thio]-1H-tetrazole]
61 | > 95 µM |  | CCOC(=O)C1CCN(c2ncnc3c2oc2ccc(Cl)cc23)CC1 [1-(8-chloro-4-benzofuro[3,2-d]pyrimidinyl)-4-piperidinecarboxylic acid ethyl ester]
62 | 3.91 µM |  | OC1(c2cccc(C(F)(F)F)c2)CCN(c2ncnc3c2[nH]c2ccc(F)cc23)CC1 [1-(8-fluoranyl-5H-pyrimido[5,4-b]indol-4-yl)-4-[3-(trifluoromethyl)phenyl]piperidin-4-ol]

Row | SMILES | EC50 | EC50 [1]
63 | Cn1ncnc2c(=O)n(C)c(=O)nc1-2 | 1.4 µM | 
64 | CCCCOc1ccc(S(=O)(=O)n2c(C)nc3ccccc32)cc1 [1-(4-butoxyphenyl)sulfonyl-2-methyl-benzimidazole] |  | 23.2 µM
